Measured values as given in patent US20060229347A1, “Treatment of eczemas” (Astion Development A/S, priority 2005, published 2006).
Where a name gives a salt, the structure may show the parent alone.

What was measured:
[1] = tested on: oxazolone induced ear inflammation; assay: Oxazolone induced Mouse Ear Oedema Assay; format: in vivo, mice; settings: for % inhibition of ear swelling: 24 hours; for inhibition of the formation of ear oedema: Example 7, 500 μg/ear dissolved in 96% ethanol
Experimental: Screening for Anti-inflammatory Effect in the Oxazolone induced Mouse Ear Oedema Assay. […] This screening method is commonly employed for screening and evaluation of anti-inflammatory drugs, in particular with respect to the inflammation seen in contact dermatitis. Betamethasone-17 valerate was used as the positive control. […] Betamethason was administered topically in quantities of 20 μg/ear. Betamethason was applied in the commercial form Celeston valerate® 0.1%. All groups were immunised with 20 μl oxazolone, 1.6% in ethanol 96% (w/v) on the left and the right ear. The ear thickness of all mice on both the left and right side was measured with an electronic measuring gauge. All groups were challenged with 20 μl oxazolone (1.6% in ethanol 96% (w/v)) on the left ear and the right ear. Vehicle (acetone) or test article solutions were administered 20 minutes before and 20 minutes after oxazolone challenge. 24 hours after oxazolone challenge the ear thickness of all mice was measured with an electronic measuring gauge. Mean thickness of the ears and standard deviations were calculated. Ear swelling was calculated as the difference between the ear thickness day 7 and day 8. […] Differences in ear swelling between the vehicle treated group and the other groups were tested for significance employing a non-parametric statistical method of analysis, the Mann-Whitney U test. The required level of significance was p<0.05. […] Both test articles were applied in a dose of 500 μg/ear and dissolved in 96% ethanol. Betamethason, as the positive control was administered topically in quantities of 20 μg/ear.

[2] = target: T1, Protein Tyrosine Kinase, ZA70 (ZAP-70) (Homo sapiens, UniProt P43403); assay: Protein Tyrosine Kinase ZA70 (ZAP-70) enzyme inhibition assay (MDS Pharma Service No. 155987); format: biochemical; settings: in comparison to Oxaprozin
T1 construct: purchased MDS Pharma Service (contract assay) 155987
T1 sequence (P43403 1-619): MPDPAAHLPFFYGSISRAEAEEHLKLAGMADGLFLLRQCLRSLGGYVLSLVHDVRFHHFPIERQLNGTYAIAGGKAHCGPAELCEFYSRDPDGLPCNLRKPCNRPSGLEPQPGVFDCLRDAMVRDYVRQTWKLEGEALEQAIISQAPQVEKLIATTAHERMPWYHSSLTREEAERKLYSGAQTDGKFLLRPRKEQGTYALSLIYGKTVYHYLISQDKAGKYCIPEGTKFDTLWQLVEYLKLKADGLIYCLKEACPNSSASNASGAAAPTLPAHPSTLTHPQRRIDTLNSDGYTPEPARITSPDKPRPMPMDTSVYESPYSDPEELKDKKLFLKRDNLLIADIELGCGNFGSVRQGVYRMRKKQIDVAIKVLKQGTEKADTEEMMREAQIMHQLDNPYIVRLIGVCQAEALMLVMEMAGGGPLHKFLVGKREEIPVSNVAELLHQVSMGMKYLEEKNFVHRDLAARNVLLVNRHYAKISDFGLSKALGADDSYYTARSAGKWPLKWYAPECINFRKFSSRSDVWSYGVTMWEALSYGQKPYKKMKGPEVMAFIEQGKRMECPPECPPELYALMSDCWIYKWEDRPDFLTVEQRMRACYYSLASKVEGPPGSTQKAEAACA
From the text: The term “an inhibitor of Protein tyrosine kinase ZAP-70” refers to any agent that inhibits the catalytic activity of the Protein tyrosine kinase ZAP-70 in vitro as may be determined using a method described in Huckle W R, Dy R C, Earp H S. Calcium-dependent increase in tyrosine kinase activity stimulated by angiotensin II. Proc Natl Acad Sci USA 1992 Sep. 15; 89(18):8837-41 and in Isakov N, Wange R L, Watts J D, Aebersold R, Samelson L E. Purification and characterization of human ZAP-70 protein-tyrosine kinase from a baculovirus expression system. J Biol Chem 1996 Jun. 28; 271(26):15753-61. The inhibitory activity of Protein Tyrosine Kinase ZAP may be determined at MDS Pharma Service using test method number 155987.
(§1) The enzyme assays were conducted by MSD Pharma Services.

[3] = target: T2, Protein Tyrosine Kinase, SYK (Homo sapiens, UniProt P43405); assay: Protein Tyrosine Kinase SYK enzyme inhibition assay (MDS Pharma Service No. 155761); format: biochemical; settings: in comparison to Oxaprozin
T2 construct: purchased MDS Pharma Service (contract assay) 155761
From the text: The term “an inhibitor of Protein tyrosine kinase Syk” refers to any agent that inhibits the catalytic activity of Protein tyrosine kinase Syk in vitro. Such in vitro assays are described in Shichijo M, Yamamoto N, Tsujishita H, Kimata M, Nagai H, Kokubo T. Inhibition of syk activity and degranulation of human mast cells by flavonoids. Biol Pharm Bull 2003 December; 26(12):1685-90 and in Zhang J, Berenstein E, Siraganian R P. Phosphorylation of Tyr342 in the linker region of Syk is critical for Fc epsilon RI signalling in mast cells. Mol Cell Biol 2002 December; 22(23):8144-54. The inhibitory activity of Protein Tyrosine Kinase SYK may be determined at MDS Pharma Service using test method number 155761.
as §1

Phosphodiesterase PDE IV = Phosphodiesterase PDE IV enzyme inhibition assay (MDS Pharma Service No. 154000); format: biochemical; settings: in comparison to Oxaprozin
Experimental: Trends Pharmacol Sci 1991 January; 12(1):19-27 and in Cortijo J, Bou J, Beleta J, Cardelus I, Llenas J, Morcillo E et al. Investigation into the role of phosphodiesterase IV in bronchorelaxation, including studies with human bronchus. Br J Pharmacol 1993 February; 108(2):562-8. The inhibitory activity of Phosphodiesterase PDE IV may be determined at MDS Pharma Service using test method number 154000.
as §1

skin = settings: guinea pig, in vivo
Experimental: 17th, 1992, and the test method B.6 of the 96/54 E.E.C Directive.
Albino guinea pigs of Dunkin-Hartley strain were exposed to the test item after an acclimatisation period of at least five days.
The Maximum Non Necrotizing Concentration (M.N.N.C.) was determined by injecting by intradermal route the following concentrations: 2.5%, 1.25%, 0.625%, 0.3125%, 0.1562% and 0.078% diluted in physiological saline solution.
Pre-Maximum Non Irritant Concentration (pre-M.N.I.C.) was determined by application of the test item under an occlusive dressing during 24 hours, at the following concentrations: 2.5%, 1.25%, 0.625%, 0.3125% diluted in physiological saline solution.
Maximum Non Irritant Concentration (M.N.I.C.) was determined by initially establishing an induction phase by intradermal injection with a physiological saline solution and by topical application of distilled water followed by a 18-day rest phase. In the challenge phase where the test item is under occlusive dressing for 24 hours, the test item was applied to the skin of the Albino guinea pigs at the following concentrations: 2.5%, 1.25%, 0.625%, 0.3125% diluted in physiological saline solution.

undamaged skin = assay: Acute dermal irritation; format: in vivo; settings: monoethanolamine salt 5% by weight in water, 0.5 mL patch; reading time 1 hour
Experimental: The sample was applied at a dose of 0.5 mL, on an undamaged skin area of the right flank of each animal. The patch was secured in position with a strip of surgical adhesive tape.
On the left flank an untreated area served as the control.
The skin reactions were evaluated after 1 hour and then after 24, 48 and 72 hours following removal of the patch according to the following grading scale:
Erythema (0: No erythema, 1: Slight(barelyperceptible)erythema, 2: Definite erythema, 3: Moderate to severe erythema, 4: Severe erythema (purple) with formation of eschars (deep lesions) preventing erythema from being grading).
Oedema (0: No oedema, 1: Very slight (barely perceptible) oedema, 2: Slight oedema (contour clearly defined), 3: Moderate oedema (thickness), 4: Severe oedema (thickness greater than 1 mm, surface larger than zone of application)

CCCCC(=O)O[C@]1(C(=O)CO)[C@@H](C)C[C@H]2[C@@H]3CCC4=CC(=O)C=C[C@]4(C)[C@@]3(F)[C@@H](O)C[C@@]21C [Betamethasone 17-valerate]
% inhibition of ear swelling ([1]; 20 μg/ear topical, Celeston valerate 0.1%): 66%

CCCCOc1ccc(CC(=O)NO)cc1 [Bufexamac]
inhibitory effect on Protein Tyrosine Kinase ZAP-70 [2]: only exhibits inhibitory effect on the PDE-IV enzyme
inhibition of the formation of ear oedema [1]: did not inhibit the formation of ear oedema at all
inhibitory effect on Protein Tyrosine Kinase SYK [3]: only exhibits inhibitory effect on the PDE-IV enzyme
inhibitory effect on the PDE-IV enzyme (Phosphodiesterase PDE IV): exhibits inhibitory effect

O=C(O)CCc1nc(-c2ccccc2)c(-c2ccccc2)o1 [Oxaprozin monoethanolamine salt]
% inhibition of ear swelling ([1]; 250 μg/ear topical in acetone, 20 min before and after oxazolone challenge): 53%
% inhibition of ear swelling ([1]; 500 μg/ear topical in acetone, 20 min before and after oxazolone challenge): 77%
% inhibition of ear swelling ([1]; 1000 μg/ear topical in acetone, 20 min before and after oxazolone challenge): 95%
inhibition of ear swelling (conclusion) ([1]; 250-1000 μg/ear): dose dependent and highly significant inhibition of ear swelling
inhibition of ear swelling compared with Betamethasone 17-valerate ([1]; highest dose (1000 μg/ear) vs Betamethasone 17-valerate 20 μg/ear): significantly stronger
skin sensitization (cutaneous reactions attributable to allergy) (skin): not causing sensitization reactions

O=C(O)CCc1nc(-c2ccccc2)c(-c2ccccc2)o1 [Oxaprozin, 4,5-diphenyl-2-oxazole-propionic acid]
inhibition of the formation of ear oedema [1]: statistically significant inhibition of the formation of ear oedema
cutaneous reactions (erythema) (undamaged skin): slight erythema
